Reference: patent US20150274664A1 (MERCK SHARP & DOHME CORP., priority 2012, published 2015)

Molecular target: T1, human GPR119 (Homo sapiens, UniProt Q8TDV5)
T1 construct: expressed in transfected cells; host or cells: HEK293
T1 sequence (Q8TDV5 1-335): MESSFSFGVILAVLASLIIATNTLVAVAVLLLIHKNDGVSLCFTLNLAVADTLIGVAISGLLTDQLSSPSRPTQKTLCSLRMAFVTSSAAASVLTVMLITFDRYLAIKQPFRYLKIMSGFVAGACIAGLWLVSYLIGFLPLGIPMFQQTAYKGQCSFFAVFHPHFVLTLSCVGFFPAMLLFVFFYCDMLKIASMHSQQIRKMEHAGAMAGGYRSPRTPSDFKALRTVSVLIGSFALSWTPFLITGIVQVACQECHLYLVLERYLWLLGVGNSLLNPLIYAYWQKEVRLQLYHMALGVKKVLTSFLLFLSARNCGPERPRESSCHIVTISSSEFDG
Experiment: Measurement of GPR119 signaling using LANCE 384-well cAMP kit (LCMP assay)
Assay type: cell-based
Conditions: HEK293 cells stably transfected with human GPR119
Description: Measurement of GPR119 Signaling Using LANCE 384-Well cAMP Kit (LCMP Assay)
Human embryonic kidney (HEK) 293 cell lines stably transfected with human GPR119 were maintained in DMEM media containing FBS, penicillin-streptomycin, HEPES, and hygromycin. For the cAMP assay, the transfected cells were harvested using a non-enzymatic cell dissociation solution (GIBCO 2672), pelleted and resuspended in stimulation buffer (DMEM, 25 mM Hepes, 0.1% BSA, pH 7.4 in the presence of 100 μM phosphodiesterase inhibitors). The adenylate cyclase assay was constructed following the LANCE™ cAMP Kit (Perkin Elmer, AD0264) instructions. Briefly, cells with Alexa Fluor® 647-anti cAMP antibody were incubated with 10 point series diluted test article in stimulation buffer with a final concentration of 2.5% DMSO for 45 minutes. The reaction was stopped by incubating with the supplied detection buffer containing the europium chelate of the Eu-SA/Biotin-cAMP tracer for 3 hours. The assay was performed in duplicate in a 384 well plate for duplicate plates. Fluorescence at 665 nm was measured using a PHERAstar instrument. Basal activity was determined using a DMSO control and maximum response was defined as cAMP stimulation produced by an internal agonist control. Standard cAMP concentrations were assayed concurrently for conversion of fluorescence signal to cAMP level. The data was analyzed using 4-parameter curve fit in Microsoft Excel.

Compound | EC50 [nM]
CS(=O)(=O)c1ccc(OCC[C@H]2C[C@@H]2C2CCN(c3ncc(Cl)cn3)CC2)c(F)c1 [Example 30, 5-chloro-2-(4-((1R,2R)-2-(2-(2-fluoro-4-(methylsulfonyl)phenoxy)ethyl)cyclopropyl)piperidin-1-yl)pyrimidine] | 23
CCc1cnc(N2CCC([C@@H]3C[C@H]3CCOc3ccc(S(C)(=O)=O)c(F)c3)CC2)nc1 [Example 31, 5-ethyl-2-(4-((1S,2S)-2-(2-(3-fluoro-4-(methylsulfonyl)phenoxy)ethyl)cyclopropyl)piperidin-1-yl)pyrimidine] | 16
CCc1cnc(N2CCC([C@@H]3C[C@H]3CCOc3ccc(S(=O)(=O)CC)cc3F)CC2)nc1 [Example 32, 5-ethyl-2-(4-((1S,2S)-2-(2-(4-(ethylsulfonyl)-2-fluorophenoxy)ethyl)cyclopropyl)piperidin-1-yl)pyrimidine] | 18
COCc1cnc(N2CCC([C@H]3C[C@@H]3CCOc3ccc(S(C)(=O)=O)c(F)c3)CC2)nc1 [Example 33, 2-(4-((1R,2R)-2-(2-(3-fluoro-4-(methylsulfonyl)phenoxy)ethyl)cyclopropyl)piperidin-1-yl)-5-(methoxymethyl)pyrimidine] | 15
Fc1cc(OCC[C@H]2C[C@@H]2C2CCN(c3ncc(Cl)cn3)CC2)ccc1-n1cnnn1 [Example 37, 5-chloro-2-(4-((1R,2R)-2-(2-(3-fluoro-4-(1H-tetrazol-1-yl)phenoxy)ethyl)cyclopropyl)piperidin-1-yl)pyrimidine] | 6.8
CCc1cnc(N2CCC([C@H]3C[C@@H]3CCOc3ccc(-n4cnnn4)c(F)c3)CC2)nc1 [Example 38, 5-ethyl-2-(4-((1R,2R)-2-(2-(3-fluoro-4-(1H-tetrazol-1-yl)phenoxy)ethyl)cyclopropyl)piperidin-1-yl)pyrimidine] | 5.3
CCc1cnc(N2CCC([C@@H]3C[C@H]3CCOc3ccc(-n4cnnn4)c(F)c3)CC2)nc1 [Example 39, 5-ethyl-2-(4-((1S,2S)-2-(2-(3-fluoro-4-(1H-tetrazol-1-yl)phenoxy)ethyl)cyclopropyl)piperidin-1-yl)pyrimidine] | 8.7
CCc1cnc(N2CCC([C@@H]3C[C@H]3CCOc3ccc(-n4cnnn4)cc3F)CC2)nc1 [Example 40, 5-ethyl-2-(4-((1S,2S)-2-(2-(2-fluoro-4-(1H-tetrazol-1-yl)phenoxy)ethyl)cyclopropyl)piperidin-1-yl)pyrimidine] | 5
Fc1cc(-n2cnnn2)ccc1OCC[C@@H]1C[C@H]1C1CCN(c2ncc(Cl)cn2)CC1 [Example 41, 5-chloro-2-(4-((1S,2S)-2-(2-(2-fluoro-4-(1H-tetrazol-1-yl)phenoxy)ethyl)cyclopropyl)piperidin-1-yl)pyrimidine] | 5.6
COCc1cnc(N2CCC([C@@H]3C[C@H]3CCOc3ccc(CC(=O)N(C)C)c(F)c3)CC2)nc1 [Example 52, 2-(2-fluoro-4-(2-((1S,2S)-2-(1-(5-(methoxymethyl)pyrimidin-2-yl)piperidin-4-yl)cyclopropyl)ethoxy)phenyl)-N,N-dimethylacetamide] | 9.6

Next, values leading:

EC50 [nM] | Compound
0.64 | O=C(Cc1ccc(OCC[C@H]2C[C@@H]2C2CCN(c3ncc(Cl)cn3)CC2)cc1F)N1CCC1 [Example 34, 1-(azetidin-1-yl)-2-(4-(2-((1R,2R)-2-(1-(5-chloropyrimidin-2-yl)piperidin-4-yl)cyclopropyl)ethoxy)-2-fluorophenyl)ethanone]
4.6 | O=C(Cc1ccc(OCC[C@H]2C[C@@H]2C2CCN(c3ncc(Cl)cn3)CC2)c(F)c1)N1CCC1 [Example 35, 1-(azetidin-1-yl)-2-(4-(2-((1R,2R)-2-(1-(5-chloropyrimidin-2-yl)piperidin-4-yl)cyclopropyl)ethoxy)-3-fluorophenyl)ethanone]
5.5 | CCc1cnc(N2CCC([C@@H]3C[C@H]3CCOc3ccc(CC(=O)N4CCC4)c(F)c3)CC2)nc1 [Example 36, 1-(azetidin-1-yl)-2-(4-(2-((1S,2S)-2-(1-(5-ethylpyrimidin-2-yl)piperidin-4-yl)cyclopropyl)ethoxy)-2-fluorophenyl)ethanone]
1.8 | O=C(Cc1ccc(OCC[C@@H]2C[C@H]2C2CCN(c3ncc(Cl)cn3)CC2)cc1F)N1CCC1 [Example 42, 1-(azetidin-1-yl)-2-(4-(2-((1S,2S)-2-(1-(5-chloropyrimidin-2-yl)piperidin-4-yl)cyclopropyl)ethoxy)-2-fluorophenyl)ethanone]
9.6 | CCc1cnc(N2CCC([C@H]3C[C@@H]3CCOc3ccc(N4CCNC4=O)c(F)c3)CC2)nc1 [Example 43, 1-(4-(2-((1R,2R)-2-(1-(5-ethylpyrimidin-2-yl)piperidin-4-yl)cyclopropyl)ethoxy)-2-fluorophenyl)imidazolidin-2-one]
2.9 | CCc1cnc(N2CCC([C@H]3C[C@@H]3CCOc3ccc(CC(=O)N4CCC4)cc3F)CC2)nc1 [Example 44, 1-(azetidin-1-yl)-2-(4-(2-((1R,2R)-2-(1-(5-ethylpyrimidin-2-yl)piperidin-4-yl)cyclopropyl)ethoxy)-3-fluorophenyl)ethanone]
0.8 | CCc1cnc(N2CCC([C@H]3C[C@@H]3CCOc3ccc(CC(=O)N4CCC4)c(F)c3)CC2)nc1 [Example 45, 1-(azetidin-1-yl)-2-(4-(2-((1R,2R)-2-(1-(5-ethylpyrimidin-2-yl)piperidin-4-yl)cyclopropyl)ethoxy)-2-fluorophenyl)ethanone]
4.4 | CCc1cnc(N2CCC([C@@H]3C[C@H]3CCOc3ccc(CC(=O)N(C)C)c(F)c3)CC2)nc1 [Example 46, 2-(4-(2-((1S,2S)-2-(1-(5-ethylpyrimidin-2-yl)piperidin-4-yl)cyclopropyl)ethoxy)-2-fluorophenyl)-N,N-dimethylacetamide]
2.9 | CCc1cnc(N2CCC([C@H]3C[C@@H]3CCOc3ccc(CC(=O)N(C)C)c(F)c3)CC2)nc1 [Example 47, 2-(4-(2-((1R,2R)-2-(1-(5-ethylpyrimidin-2-yl)piperidin-4-yl)cyclopropyl)ethoxy)-2-fluorophenyl)-N,N-dimethylacetamide]
8.5 | COCc1cnc(N2CCC([C@@H]3C[C@H]3CCOc3ccc(CC(=O)N4CCC4)c(F)c3)CC2)nc1 [Example 48, 1-(azetidin-1-yl)-2-(2-fluoro-4-(2-((1S,2S)-2-(1-(5-(methoxymethyl)pyrimidin-2-yl)piperidin-4-yl)cyclopropyl)ethoxy)phenyl)ethanone]
0.7 | CCc1cnc(N2CCC([C@@H]3C[C@H]3CCOc3cc(F)c(CC(=O)N(C)C)c(F)c3)CC2)nc1 [Example 49, 2-(4-(2-((1S,2S)-2-(1-(5-ethylpyrimidin-2-yl)piperidin-4-yl)cyclopropyl)ethoxy)-2,6-difluorophenyl)-N,N-dimethylacetamide]
0.35 | CCc1cnc(N2CCC([C@@H]3C[C@H]3CCOc3cc(F)c(CC(=O)N4CCC4)c(F)c3)CC2)nc1 [Example 50, 1-(azetidin-1-yl)-2-(4-(2-((1S,2S)-2-(1-(5-ethylpyrimidin-2-yl)piperidin-4-yl)cyclopropyl)ethoxy)-2,6-difluorophenyl)ethanone]
3.4 | COCc1cnc(N2CCC([C@H]3C[C@@H]3CCOc3ccc(CC(=O)N4CCC4)c(F)c3)CC2)nc1 [Example 51, 1-(azetidin-1-yl)-2-(2-fluoro-4-(2-((1R,2R)-2-(1-(5-(methoxymethyl)pyrimidin-2-yl)piperidin-4-yl)cyclopropyl)ethoxy)phenyl)ethanone]
